These are literature values, as cited in paper PMC6768323, “Adverse Maternal, Fetal, and Postnatal Effects of Hexafluoropropylene Oxide Dimer Acid (GenX) from Oral Gestational Exposure in Sprague-Dawley Rats” (Environmental Health Perspectives, 2019).

Structures are written as SMILES. Read-outs that look alike come from different tables or passages of the source.

The series relates to rat. Particulars: cited from earlier work.

With `O=S(=O)(O)C(F)(F)C(F)(F)C(F)(F)C(F)(F)C(F)(F)C(F)(F)C(F)(F)C(F)(F)F` [PFOS, perfluorooctane sulfonate], under “ref Lau et al. 2003”, the “dose with increased neonatal mortality” value is no less than 3 mg/kg and the “dose with lower pup body weights” value is recorded as no less than 2 mg/kg. The “dose with neonatal mortality” value (ref Luebker et al. 2005a, 2005b) is no less than 1.6 mg/kg. For the same compound, the “dose with lower pup body weights” value (ref Luebker et al. 2005b) was no less than 0.4 mg/kg.
